What was measured:
[1] = tested on: chicken chorioallantoic membrane (CAM); assay: Chicken chorioallantoic membrane (CAM) assay for angiogenesis; assay type: in vivo; conditions: for Vein length (%) / Artery length (%) / Total vessel length (%) / Vein Diameter (%): % of control, Mean ± SEM
Procedure: Fertilised chicken eggs (HiChick Breeding Co, Kapunda, South Australia) were incubated for three days at 38° C. On Day 3 the embryos were cracked out of the egg and into a cup made of plastic piping, with plastic film stretched over the top to form a hammock for the egg to be suspended in. Two ml of DMEM containing penicillin and streptomycin was added to each cup prior to the egg being added. A petri dish on the top maintained sterility. Incubation continued in a humidified 37° C. incubator.
On Day 4 the chorioallantoic membrane (CAM) begins to grow, and pictures were taken of each embryo at ×5 to measure the CAM area using image analysis software (Video Pro 32, Leading Edge Pty Ltd, South Australia).
Embryos were then grouped according to their CAM area, with a control embryo in each for comparison. Grouping is critical as in these early developmental stages changes in the CAM growth are dramatic. Relatively small differences in size on Day 4 translate to large differences in the CAM on Day 5. Treatment was applied in methylcellulose discs, which were dried under vacuum overnight. The methylcellulose discs were applied to the top of the CAM, and at the beginning of treatment were at least three to four-fold bigger than the CAM area, meaning treatment covered the entire CAM surface.
On Day 5 skim milk with contrast medium was injected into the CAM. Pictures were then taken at various levels of magnification up to ×63. Quantitative measurements were made from ×5 pictures. CAM area, and vein and artery lengths were measured using image analysis (Video Pro 32, Leading Edge Pty Ltd, South Australia). Relative vessel lengths were then calculated as the total length/CAM area. Statistical analysis was made using SigmaStat and OneWay ANOVA with p<0.05 as the level of significance.

[2] = tested on: corneal neovascularisation; assay: Mouse corneal vascularisation model (cornea scratched and infected with Pseudomonas aeruginosa 6294); assay type: in vivo, BALB/c mice; conditions: for vascularisation of the cornea compared to Groups 1 and 2 (photomicrographs): Group 3, 200 μmol/10 μL topical; for Percentage of animals showing vascularisation in the infected eye / animals showing vascularisation in the infected eye (number/total): 12-MTA 200 μmol/10 μL topical, every second day from day 4; for corneal neovascularisation in mice (in words): mouse, in vivo
Excerpt: To induce neovascularisation in the cornea of mice, cornea were scratched and infected with Pseudomonas aeruginosa as essentially described in Cole, N., Willcox, M. D. P., Fleiszig, S. M. J., Stapleton, F., Bao, S., Tout, S., Husband, A. J. (1998) “Different strains of Pseudomonas aeruginosa isolated from ocular infections or inflammation display distinct corneal pathologies in an animal model.” Curr. Eye Res., 17:730-735.
Briefly, stock cultures of P. aeruginosa 6294 stored in 30% glycerol at −70° C. were inoculated into 10 mL of tryptone soya broth (Oxoid Ltd, Sydney, Australia). Cultures were prepared as previously described (Cole et al. (1998) Curr. Eye Res. 17:730-735) and suspended in phosphate buffered saline (PBS) to a concentration of 4×10^8 cfu (colony forming units)/ml. Bacterial concentration was adjusted turbidimetrically and the dose confirmed retrospectively by viable counts.
Inbred 6-8 week old BALB/c mice were anaesthetised with Averin (125 mg/kg, intraperitoneally) and the corneal surfaces of the eyes were incised with a sterile 27 gauge needle. 5 μL of the bacterial suspension (2.0×10^6 cfu) of strain 6294 was pipetted directly onto the wounded cornea of the left eye only. The right eye of each animal served as a control and was scratched but not infected. A minimum of eight mice per treatment group were used.
12-MTA at 200 μmol/10 μL was prepared as an emulsion in unpreserved paraffin and lanolin ophthalmic ointment base (Polyvisc, Alcon, Belgium) for topical application. Animals were divided into three treatment groups: Group 1 received no treatment; Group 2 received 10 μL of vehicle topically to the cornea per treatment to both the challenged and scratch control eye; and Group 3 received 10 μL of the 12-MTA as described above to both the challenged and scratch control eyes. The treatment schedule was begun four days after challenge and then every second day until the termination of the experiment 14 days post-challenge.
Mice were examined prior to bacterial challenge, immediately subsequent to bacterial challenge and 7 and 14 days post-challenge by a masked observer. The animals were anaesthetised for examination as described above and the corneas were examined at 48× magnification under white light using an FS2 photo slit-lamp biomicroscope (Topcon Corporation, Tokyo, Japan). At 7 and 14 days post-challenge, following the white light examination, 1% sodium fluorescein was instilled and the corneas viewed under UV light. Grades of severity of corneal damage were made and measurement of the extent and incursion of vessels into the central cornea were made.
Measurements were examined for significance using non-parametric Kruskal-Wallis and Mann Whitney U analysis.
For histological examination of corneas, mice were sacrificed at 14 days post-challenge. The eyes were immediately enucleated, fixed in neutral buffered formalin and embedded in paraffin. […] sections were cut and stained with haematoxylin and eosin for histopathological examination.

CCC(C)CCCCCCCCCCC(=O)O (stereo not shown) [12-MTA, 12-methyltetradecanoic acid]
Vein length (%) ([1]; 25 nmol on methylcellulose disc): 82.1 ± 22.9% | Artery length (%) ([1]; 25 nmol): 81.8 ± 11.6% | Total vessel length (%) ([1]; 25 nmol): 79.8 ± 15.0% | Vein Diameter (%) ([1]; 25 nmol): 89.3 ± 25.2% | Vein length (%) ([1]; 50 nmol on methylcellulose disc): 74.4 ± 20.8% | Artery length (%) ([1]; 50 nmol): 78.8 ± 12.2% | Total vessel length (%) ([1]; 50 nmol): 74.9 ± 14.7% | Vein Diameter (%) ([1]; 50 nmol): 59.1 ± 11.2% | Vein length (%) ([1]; 100 nmol on methylcellulose disc): 46.0 ± 8.7^1% | Artery length (%) ([1]; 100 nmol): 63.8 ± 4.0^1% | Total vessel length (%) ([1]; 100 nmol): 54.9 ± 4.3^1% | Vein Diameter (%) ([1]; 100 nmol): 45.9 ± 10.0^1% | number of branching capillaries sprouting from the main vessels ([1]; 500 nmol): reduction | vessel area ([1]; 500 nmol): diminished | cytotoxicity to the embryo ([1]; chicken embryo, CAM assay): not cytotoxic | inhibition of angiogenesis in the CAM assay, dose dependent (in words) ([1]; dose dependent manner): inhibit angiogenesis | effect of the lowest dose on vein length, artery length, total vessel length and vein diameter (in words) ([1]; lowest dose (25 nmol)): inhibited | effect on scratch control (uninfected) eyes ([2]; 200 μmol/10 μL topical, any time point): does not affect the cornea | blood vessel formation in the corneal stroma (histological examination) ([2]; 14 days post-challenge, Group 3): reduced blood vessel formation | vascularisation of the cornea compared to Groups 1 and 2 (photomicrographs) ([2]; Day 7): reduced vascularisation | Percentage of animals showing vascularisation in the infected eye ([2]; Day 7 post-challenge): 40% | animals showing vascularisation in the infected eye (number/total) ([2]; Day 7 post-challenge): 4/10 | vascularisation of the cornea compared to Groups 1 and 2 (photomicrographs) ([2]; Day 14): reduced vascularisation | Percentage of animals showing vascularisation in the infected eye ([2]; Day 14 post-challenge): 50% | animals showing vascularisation in the infected eye (number/total) ([2]; Day 14 post-challenge): 5/10 | animals with mild ocular response ([2]; Group 3, Day 14 post-challenge): 60% | animals with severe ocular response ([2]; Group 3, Day 14 post-challenge): 20% | median score of severity of corneal damage (ocular response) ([2]; Group 3, Day 14 post-challenge): 1.65 (range 0-4) | animals with a persistent epithelial defect ([2]; Group 3, first examination): 20% | animals with mild ocular response ([2]; Group 3, first examination): 50% | animals with severe ocular response ([2]; Group 3, first examination): 10% | median score of severity of corneal damage (ocular response) ([2]; Group 3, first examination (Day 7 implied, not given)): 2.1 (range 0.54) | corneal neovascularisation in mice (in words) [2]: inhibited corneal neovascularization | corneal neovascularisation in mice (in words) ([2]; listed as 12-methlytetradecanoic acid): inhibits corneal neovascularisation

Source: patent US20050143463A1, “Method of inhibiting angiogenesis” (THE QUEEN ELIZABETH HOSPITAL RESEARCH FOUNDATION INC., priority 2002, published 2005)
